Data as given in the supplement of paper PMC10307832.

Tests used:
Experiment in all cases: relative viability (nuclei count vs DMSO), 5 days (fraction); higher = more cells survive
[1] = compound: CC1=C(C=C(C=C1)NC(=O)C2=CC(=CC=C2)C(C)(C)C#N)NC3=CC4=C(C=C3)N=CN(C4=O)C [AZ628] + O=C(c1cc(Cc2n[nH]c(=O)c3ccccc23)ccc1F)N1CCN(C(=O)C2CC2)CC1 [Olaparib] (partner 8 µM)
Procedure, shortened: (§1)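 A single step with final 0.05% Triton X-100, 1% formaldehyde and 1 ug/ml Hoechst fixed the cells and stained nuclei 5 days after treatment. Lung cancer cell lines in 1536-well plates had been treated by pin tool the day after seeding with one drug alone or a fixed anchor-drug dose plus five library-drug doses (not always all listed) in √10 steps, and nuclei were counted on 4× images. Relative viability is the ratio of nuclei in treated wells to nuclei in vehicle wells, taken as the median of duplicate plates.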

[2] = compound: C[As](C)SC[C@H](NC(=O)CC[C@H](N)C(=O)O)C(=O)NCC(=O)O [Darinaparsin] + CS(=O)(=O)CCNCc1ccc(-c2ccc3ncnc(Nc4ccc(OCc5cccc(F)c5)c(Cl)c4)c3c2)o1 [Lapatinib] (partner 2 µM)
Procedure, shortened: as §1

[3] = compound: C[As](C)SC[C@H](NC(=O)CC[C@H](N)C(=O)O)C(=O)NCC(=O)O [Darinaparsin] + Nc1ncn([C@H]2C[C@H](O)[C@@H](CO)O2)c(=O)n1 [Decitabine] (partner 2 µM)
Procedure, shortened: as §1

[4] = compound: CC1=C(C=C(C=C1)NC(=O)C2=CC(=CC=C2)C(C)(C)C#N)NC3=CC4=C(C=C3)N=CN(C4=O)C [AZ628] + CCNC(=O)c1noc(-c2cc(C(C)C)c(O)cc2O)c1-c1ccc(CN2CCOCC2)cc1 [Luminespib] (partner 0.01 µM)
Procedure, shortened: as §1

| Cell Line | relative viability ([1]; first compound 0.08 µM) | relative viability ([1]; first compound 0.253 µM) | relative viability ([1]; first compound 0.8 µM) | relative viability ([1]; first compound 2.53 µM) | relative viability ([1]; first compound 8 µM) | relative viability ([2]; first compound 0.08 µM) | relative viability ([2]; first compound 0.8 µM) | relative viability ([2]; first compound 2.53 µM) | relative viability ([2]; first compound 8 µM) | relative viability ([3]; first compound 0.08 µM) | relative viability ([3]; first compound 0.8 µM) | relative viability ([3]; first compound 2.53 µM) | relative viability ([3]; first compound 8 µM) | relative viability ([4]; first compound 0.08 µM) | relative viability ([4]; first compound 0.253 µM) | relative viability ([4]; first compound 0.8 µM) | relative viability ([4]; first compound 2.53 µM) | relative viability ([4]; first compound 8 µM) |
| --- | --- | --- | --- | --- | --- | --- | --- | --- | --- | --- | --- | --- | --- | --- | --- | --- | --- | --- |
| EBC-1 | 0.609 | 0.615 | 0.737 | 0.684 | 0.314 | 0.2 | 0.211 | 0.246 | 0.223 | – | – | – | – | – | – | – | – | – |
| EKVX | 0.926 | 0.768 | 0.947 | 0.914 | 0.79 | 0.188 | 0.165 | 0.234 | 0.216 | 0.339 | 0.323 | 0.382 | 0.314 | 0.892 | 0.857 | 0.946 | 0.954 | 0.864 |
| EMC-BAC-2 | 0.566 | 0.581 | 0.612 | 0.558 | 0.746 | 0.858 | 0.924 | 0.949 | 1.05 | 0.916 | 0.907 | 1.18 | 0.969 | 1.22 | 1.03 | 1.16 | 1.07 | 1.12 |
| EPLC-272H | 0.492 | 0.663 | 0.603 | 0.568 | 0.452 | 1.02 | 0.935 | 0.923 | 0.93 | 0.377 | 0.37 | 0.353 | 0.329 | 0.252 | 0.2 | 0.527 | 0.171 | 0.235 |
| H3255 | 0.561 | 0.557 | 0.596 | 0.611 | 0.427 | 0.253 | 0.28 | 0.25 | 0.216 | 0.634 | 0.587 | 0.662 | 0.674 | 1.03 | 0.891 | 0.929 | 1 | 0.556 |
| HARA | 0.762 | 0.764 | 0.869 | 0.84 | 0.51 | 0.77 | 0.692 | 0.649 | 0.755 | 0.6 | – | 0.51 | 0.603 | 0.463 | 0.726 | 0.548 | 0.779 | 0.39 |
| HCC-15 | 0.712 | 0.747 | 0.737 | 0.738 | 0.53 | 1.04 | 0.76 | 0.81 | 1.11 | 0.727 | 0.565 | 0.643 | 0.722 | 0.262 | 0.304 | 0.478 | 0.361 | 0.282 |
| HCC-44 | 1.01 | 0.999 | 0.977 | 0.972 | 0.974 | 1.24 | 1.04 | 0.903 | 1.08 | 1.05 | 0.966 | 0.924 | 0.977 | 1.29 | 1.08 | 1.13 | 0.945 | 0.767 |
| HCC-78 | 0.94 | 0.808 | 0.807 | 0.786 | 0.903 | 0.76 | 0.58 | 0.704 | 0.885 | 0.729 | 0.668 | 0.65 | 0.853 | – | – | – | – | – |
| HCC-366 | 0.358 | 0.31 | 0.263 | 0.271 | 0.192 | 1.63 | 0.95 | 1.03 | 1.67 | 0.407 | – | 0.413 | 0.352 | – | – | – | – | – |
